Reference: ChEMBL document CHEMBL1201862, “PubChem BioAssay data set” (2004)
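How tested: cells in 96-well plates exposed to compound for 48 hours at five concentrations. Abbreviation: GI50, concentration required for 50% inhibition of growth.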 Active and inactive are the calls of the source. No stated cut-off is given here; in the data, active = GI50 up to about 1.1 µM and inactive = higher.

Legend:
Experiment in all cases: DTP human tumour cell line panel, 48 h
SK-OV-3 = system: SK-OV-3
MOLT-4 = system: MOLT-4
HCC 2998 = system: HCC 2998
U-251 = system: U-251
CCRF-CEM = system: CCRF-CEM
SR = system: SR
SNB-19 = system: SNB-19
SK-MEL-28 = system: SK-MEL-28
HCT-15 = system: HCT-15
SK-MEL-5 = system: SK-MEL-5
RPMI-8226 = system: RPMI-8226
COLO 205 = system: COLO 205
NCI/ADR-RES = system: NCI/ADR-RES
OVCAR-8 = system: OVCAR-8
NCI-H23 = system: NCI-H23
UACC-257 = system: UACC-257
SN12C = system: SN12C
786-0 = system: 786-0
SF-268 = system: SF-268
CAKI-1 = system: CAKI-1

Row | SMILES | GI50 (SK-OV-3) | GI50 (MOLT-4) | GI50 (HCC 2998) | GI50 (U-251) | GI50 (CCRF-CEM) | GI50 (SR) | GI50 (SNB-19) | GI50 (SK-MEL-28) | GI50 (HCT-15) [µM] | GI50 (SK-MEL-5) | GI50 (RPMI-8226) | GI50 (COLO 205) | GI50 (NCI/ADR-RES) | GI50 (OVCAR-8) | GI50 (NCI-H23) | GI50 (UACC-257) | GI50 (SN12C) | GI50 (786-0) | GI50 (SF-268) | GI50 (CAKI-1)
1 | CC(C)NC(=O)OCc1c(COC(=O)NC(C)C)c(-c2ccc[n+](COC(=O)C3CC3)c2)n2c1CCC2 | 49.5 µM (inactive) | 14.9 µM (inactive) | > 100 µM (inactive) | 56 µM (inactive) | 30.4 µM (inactive) | 3.51 µM (inactive) | > 100 µM (inactive) | > 100 µM (inactive) | 87.3 | > 100 µM (inactive) | 60.4 µM (inactive) | 70.5 µM (inactive) | 47.1 µM (inactive) | 55 µM (inactive) | 29.6 µM (inactive) | > 100 µM (inactive) | 48.1 µM (inactive) | 27 µM (inactive) | 28.4 µM (inactive) | 20.1 µM (inactive)
2 | CC1CN=C(N(Cc2ccccc2)C(=O)Nc2ccc(Cl)c(Cl)c2)S1 (stereo not given) | 52.4 µM (inactive) | > 10 µM (inactive) | > 10 µM (inactive) | 32.4 µM (inactive) | > 10 µM (inactive) | 29.1 µM (inactive) | 62.4 µM (inactive) | 26.1 µM (inactive) | 15.7 | 23.3 µM (inactive) | 33.7 µM (inactive) | 31.4 µM (inactive) | 21.4 µM (inactive) | 49.3 µM (inactive) | 43.1 µM (inactive) | 32.5 µM (inactive) | 17.2 µM (inactive) | 30.5 µM (inactive) | 62.7 µM (inactive) | 36.1 µM (inactive)
3 | Cc1ccc2cccc(-c3cccc4ccccc34)c2n1 | 23.7 µM (inactive) | 13.2 µM (inactive) | 12.1 µM (inactive) | 12.7 µM (inactive) | 19.8 µM (inactive) | 12.6 µM (inactive) | 46.9 µM (inactive) | 26.6 µM (inactive) | 21.7 | 16.1 µM (inactive) | 13.1 µM (inactive) | 23.7 µM (inactive) | 26.1 µM (inactive) | 22.1 µM (inactive) | 32.9 µM (inactive) | 29.9 µM (inactive) | 25.6 µM (inactive) | 27.4 µM (inactive) | 25.5 µM (inactive) | 26.6 µM (inactive)
4 | CN(C)c1ccc(/C=C(\NC(=O)c2ccccc2)C(=O)NCC(=O)O)cc1 | > 100 µM (inactive) | > 100 µM (inactive) | > 100 µM (inactive) | > 100 µM (inactive) | > 100 µM (inactive) | > 100 µM (inactive) | > 100 µM (inactive) | > 100 µM (inactive) | > 100 | > 100 µM (inactive) | > 100 µM (inactive) | > 100 µM (inactive) | > 100 µM (inactive) | > 100 µM (inactive) | > 100 µM (inactive) | > 100 µM (inactive) | > 100 µM (inactive) | > 100 µM (inactive) | > 100 µM (inactive) | > 100 µM (inactive)
5 | O=C1NC(SSC2=NNC3(C(=O)N2)c2ccccc2-c2ccccc23)=NNC12c1ccccc1-c1ccccc12 | > 10 µM (inactive) | > 10 µM (inactive) | > 10 µM (inactive) | > 10 µM (inactive) | > 10 µM (inactive) | > 10 µM (inactive) | > 10 µM (inactive) | > 10 µM (inactive) | > 10 | > 10 µM (inactive) | > 10 µM (inactive) | > 10 µM (inactive) | > 10 µM (inactive) | > 10 µM (inactive) | > 10 µM (inactive) | > 10 µM (inactive) | > 10 µM (inactive) | > 10 µM (inactive) | > 10 µM (inactive) | > 10 µM (inactive)
6 | O=C1CS/C(=N/N=C/c2cn(Cc3ccc(Cl)cc3Cl)c3ccccc23)N1 | > 100 µM (inactive) | 38.2 µM (inactive) | 32.2 µM (inactive) | 17.3 µM (inactive) | 15.8 µM (inactive) | 14.1 µM (inactive) | 35.9 µM (inactive) | 50.4 µM (inactive) | 37.3 | 35.6 µM (inactive) | 52.1 µM (inactive) | > 100 µM (inactive) | 24.5 µM (inactive) | 10.8 µM (inactive) | 58.3 µM (inactive) | 67.8 µM (inactive) | 19.5 µM (inactive) | 22.4 µM (inactive) | 30.8 µM (inactive) | 39.1 µM (inactive)
7 | C=C1C(C(O)C[C@H](C)C2O[C@@]3(CCCCO3)CCC2C)O[C@@H]2CCC3(CCC(/C=C/[C@@H](C)C4CC(C)=CC5(O4)O[C@H](C[C@](C)(O)C(=O)O)CCC5O)O3)OC2[C@@H]1O (stereo not given in full) | 0.00955 µM (active) | 0.0122 µM (active) | 0.00171 µM (active) | 0.00105 µM (active) | 0.00826 µM (active) | 0.00964 µM (active) | 0.0027 µM (active) | 0.00227 µM (active) | < 0.0163 | 0.00308 µM (active) | 0.00315 µM (active) | 0.00376 µM (active) | 0.128 µM (active) | 0.00693 µM (active) | 0.00819 µM (active) | 0.00839 µM (active) | 0.0127 µM (active) | 0.00912 µM (active) | 0.00335 µM (active) | 0.0107 µM (active)
8 | O=S(=O)(Nc1nccs1)c1ccc(Nc2nc(-c3cccs3)nc3ccc(I)cc23)cc1 | 24.7 µM (inactive) | 14.2 µM (inactive) | 13.2 µM (inactive) | 11.5 µM (inactive) | 3.48 µM (inactive) | 22.9 µM (inactive) | 14.5 µM (inactive) | 21.4 µM (inactive) | 32.1 | 8.18 µM (inactive) | 4.74 µM (inactive) | 6.34 µM (inactive) | > 75.5 µM (inactive) | 22.2 µM (inactive) | 37.4 µM (inactive) | 4.49 µM (inactive) | 25.4 µM (inactive) | 15.5 µM (inactive) | 12.6 µM (inactive) | 9.91 µM (inactive)
9 | Cc1ccc(S(=O)(=O)NC(=O)Nc2nc[nH]n2)cc1 | > 100 µM (inactive) | > 100 µM (inactive) | > 100 µM (inactive) | > 100 µM (inactive) | > 100 µM (inactive) | > 100 µM (inactive) | > 100 µM (inactive) | > 100 µM (inactive) | > 100 | > 100 µM (inactive) | > 100 µM (inactive) | > 100 µM (inactive) | > 100 µM (inactive) | > 100 µM (inactive) | > 100 µM (inactive) | > 100 µM (inactive) | > 100 µM (inactive) | > 100 µM (inactive) | > 100 µM (inactive) | > 100 µM (inactive)
